The results in this text go back to patent US12187723B2 (BRISTOL-MYERS SQUIBB COMPANY, priority 2019, dated 2025).

The target in one experiment is T1, human TLR7 (Homo sapiens, UniProt Q9NYK1).
T1 construct: host or cells: HEK-Blue cells
T1 sequence (Q9NYK1 27-1049): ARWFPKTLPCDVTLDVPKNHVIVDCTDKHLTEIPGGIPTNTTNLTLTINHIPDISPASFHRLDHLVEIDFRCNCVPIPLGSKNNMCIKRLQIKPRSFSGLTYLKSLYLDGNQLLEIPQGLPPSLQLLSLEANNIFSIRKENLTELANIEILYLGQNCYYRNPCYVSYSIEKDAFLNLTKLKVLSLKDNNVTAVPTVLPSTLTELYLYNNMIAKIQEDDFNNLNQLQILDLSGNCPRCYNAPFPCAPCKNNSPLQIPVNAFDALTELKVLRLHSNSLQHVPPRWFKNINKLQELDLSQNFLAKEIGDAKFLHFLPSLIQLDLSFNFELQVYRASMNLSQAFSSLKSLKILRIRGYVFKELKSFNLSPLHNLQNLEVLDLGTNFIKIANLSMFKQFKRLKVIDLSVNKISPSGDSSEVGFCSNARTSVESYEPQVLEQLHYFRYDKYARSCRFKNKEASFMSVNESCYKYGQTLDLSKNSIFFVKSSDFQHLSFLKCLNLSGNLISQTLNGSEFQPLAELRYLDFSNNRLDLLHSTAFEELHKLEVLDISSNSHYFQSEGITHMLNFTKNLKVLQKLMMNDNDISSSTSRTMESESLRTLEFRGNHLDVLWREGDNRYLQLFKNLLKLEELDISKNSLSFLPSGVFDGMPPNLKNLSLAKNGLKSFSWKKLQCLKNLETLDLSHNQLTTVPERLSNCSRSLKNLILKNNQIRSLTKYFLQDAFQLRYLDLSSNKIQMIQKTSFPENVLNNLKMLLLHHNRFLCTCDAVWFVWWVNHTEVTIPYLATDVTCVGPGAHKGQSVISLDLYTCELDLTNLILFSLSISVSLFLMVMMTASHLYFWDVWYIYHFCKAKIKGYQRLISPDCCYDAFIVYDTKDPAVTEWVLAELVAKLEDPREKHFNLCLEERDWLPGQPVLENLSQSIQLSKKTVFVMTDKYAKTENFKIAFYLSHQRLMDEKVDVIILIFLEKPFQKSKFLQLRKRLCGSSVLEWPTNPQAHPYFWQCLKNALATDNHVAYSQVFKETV
The experiment can be described thus: TLR7 inhibition reporter assay (HEK-Blue SEAP). Type of experiment: cell-based. To be noted: HEK-Blue cells overexpressing human TLR7, gardiquimod 7.5 μM, 22 hour incubation. Put shortly: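 22 h, 37° C, 5% CO2 incubation; compounds 0.05 nM-50 μM final; TLR7 cells 15000/well, TLR8 20,000/well. Readout: SEAP via HEK-Blue Detection medium. % inhibition = signal reduction versus agonist + DMSO wells, referenced to known inhibitor.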

In a further experiment the target is T2, human TLR9 (Homo sapiens, UniProt Q9NR96).
T2 construct: host or cells: HEK-Blue cells
T2 sequence (Q9NR96 26-1032): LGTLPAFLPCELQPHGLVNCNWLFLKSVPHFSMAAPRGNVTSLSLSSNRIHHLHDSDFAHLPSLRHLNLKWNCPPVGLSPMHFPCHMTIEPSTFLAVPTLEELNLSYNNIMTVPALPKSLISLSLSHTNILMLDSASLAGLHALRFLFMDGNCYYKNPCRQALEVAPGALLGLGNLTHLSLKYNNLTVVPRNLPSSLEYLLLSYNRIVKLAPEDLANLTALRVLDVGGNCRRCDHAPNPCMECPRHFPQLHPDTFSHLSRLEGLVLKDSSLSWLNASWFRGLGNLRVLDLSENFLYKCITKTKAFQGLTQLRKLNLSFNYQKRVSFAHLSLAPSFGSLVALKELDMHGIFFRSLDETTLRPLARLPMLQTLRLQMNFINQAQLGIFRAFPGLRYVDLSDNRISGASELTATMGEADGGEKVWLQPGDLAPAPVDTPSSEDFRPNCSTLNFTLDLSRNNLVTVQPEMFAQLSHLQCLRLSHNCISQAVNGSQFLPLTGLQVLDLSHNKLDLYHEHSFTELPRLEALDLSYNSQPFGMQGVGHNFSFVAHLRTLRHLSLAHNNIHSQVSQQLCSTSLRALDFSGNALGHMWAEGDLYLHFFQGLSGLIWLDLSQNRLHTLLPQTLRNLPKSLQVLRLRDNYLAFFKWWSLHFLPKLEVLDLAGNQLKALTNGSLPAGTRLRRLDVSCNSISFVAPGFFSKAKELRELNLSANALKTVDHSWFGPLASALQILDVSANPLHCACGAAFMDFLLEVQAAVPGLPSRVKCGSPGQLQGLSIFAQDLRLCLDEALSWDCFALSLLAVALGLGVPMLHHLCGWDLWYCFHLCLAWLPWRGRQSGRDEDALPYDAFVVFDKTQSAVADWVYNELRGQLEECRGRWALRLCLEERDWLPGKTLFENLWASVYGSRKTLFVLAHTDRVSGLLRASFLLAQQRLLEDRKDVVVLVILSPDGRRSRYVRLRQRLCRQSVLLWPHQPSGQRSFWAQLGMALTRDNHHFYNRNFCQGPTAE
The experiment can be described thus: TLR9 inhibition reporter assay (HEK-Blue SEAP). Type of experiment: cell-based. To be noted: HEK-Blue cells overexpressing human TLR9, ODN2006 5 nM, 22 hour incubation. Put shortly:
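Compound treatment: 30 min, RT, 0.05 nM–50 μM final. Agonist: TLR7 gardiquimod 7.5 μM; TLR8 R848 15.9 μM; TLR9 ODN2006 5 nM. Incubation 22 h, 37 °C, 5% CO2. Readout SEAP, HEK-Blue Detection.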

On to `COc1cc(-c2cc3[nH]c(=O)n([C@H]4CC[C@H](N(CC(C)C)CC(C)C)CC4)c3cc2C(C)C)cn2ncnc12` [Example 205, 1-((1r,4r)-4-(diisobutylamino)cyclohexyl)-6-isopropyl-5-(8-methoxy-[1,2,4]triazolo[1,5-a]pyridin-6-yl)-1,3-dihydro-2H-benzo[d]imidazol-2-one], for which the IC50 turned out to be 4.76 nM against human TLR7 and 11600 nM on human TLR9.

Take `COc1cc(-c2cc3[nH]c(=O)n([C@@H]4CCCN(C5CCCOC5)C4)c3cc2C(C)C)cn2ncnc12` (single isomer, unassigned) [Example 219]: the half-inhibitory concentration (IC50) against human TLR7 came out at 0.05 nM; against human TLR9, 25100 nM.

Regarding `COc1cc(-c2cc3[nH]c(=O)n([C@H]4CC[C@@H](N(C)C)CC4)c3cc2C(C)C)cn2ncnc12` [Example 191, 1-((1s,4s)-4-(dimethylamino)cyclohexyl)-6-isopropyl-5-(8-methoxy-[1,2,4]triazolo[1,5-a]pyridin-6-yl)-1,3-dihydro-2H-benzo[d]imidazol-2-one], the results for the concentration for half-maximal inhibition (IC50) at human TLR7 and on human TLR9 were 1.49 nM and 11700 nM, respectively.

As to `CCc1cc2c(cc1-c1cc(OC)c3ncnn3c1)[nH]c(=O)n2[C@@H]1CCCN(CC(C)C)C1` [Example 177, (R)-6-ethyl-1-(1-isobutylpiperidin-3-yl)-5-(8-methoxy-[1,2,4]triazolo[1,5-a]pyridin-6-yl)-1,3-dihydro-2H-benzo[d]imidazol-2-one], the IC50 amounted to 1.07 nM against human TLR7 and 10700 nM against human TLR9.

Turning to `COc1cc(-c2cc3[nH]c(=O)n(C4CCC(N5CC(OC)C5)CC4)c3cc2C(C)C)cn2ncnc12` (stereo not drawn) [Example 238, 6-isopropyl-5-(8-methoxy-[1,2,4]triazolo[1,5-a]pyridin-6-yl)-1-(4-(3-methoxyazetidin-1-yl)cyclohexyl)-1,3-dihydro-2H-benzo[d]imidazol-2-one], the IC50 was found to be 0.81 nM against human TLR7 and 8090 nM against human TLR9.

Consider `COc1cc(-c2cc3[nH]c(=O)n([C@@H]4CCCN(C5CCCOC5)C4)c3cc2C(C)C)cn2ncnc12` (single isomer, unassigned) [Example 218], for which the IC50 against human TLR7 was 5.33 nM; on human TLR9, 24200 nM.

For the molecule `COc1cc(-c2cc3[nH]c(=O)n([C@@H]4CCCN(C5CCOC5)C4)c3cc2C(C)C)cn2ncnc12` (stereo partly drawn) [Example 217, 6-isopropyl-5-(8-methoxy-[1,2,4]triazolo[1,5-a]pyridin-6-yl)-1-((3R)-1-(tetrahydrofuran-3-yl)piperidin-3-yl)-1,3-dihydro-2H-benzo[d]imidazol-2-one], the IC50 is 11.2 nM on human TLR7 and more than 50000 nM against human TLR9.

As to `CCC(CC)CN[C@H]1CC[C@@H](n2c(=O)[nH]c3cc(-c4cc(OC)c5ncnn5c4)c(C(C)C)cc32)CC1` [Example 194], the IC50 was determined as 2.28 nM at human TLR7 and 2080 nM on human TLR9.

As to `Cc1c(-c2cc3[nH]c(=O)n([C@H]4CC[C@@H](NC5CCOCC5)CC4)c3cc2C(C)C)cn2ncnc2c1C` [Example 187, 5-(7,8-dimethyl-[1,2,4]triazolo[1,5-a]pyridin-6-yl)-6-isopropyl-1-((1s,4s)-4-((tetrahydro-2H-pyran-4-yl)amino)cyclohexyl)-1,3-dihydro-2H-benzo[d]imidazol-2-one], the IC50 against human TLR7 amounted to 4.09 nM; on human TLR9, 12800 nM.
